Measured values from patent US20190284286A1, “Modulation of Type I Interferons to Reactivate HIV-1 Reservoir and Enhance HIV-1 Treatment” (The University of North Carolina at Chapel Hill, priority 2016, published 2019).

What was measured:
CD4 T cells = experiment: Ex vivo culture of splenocytes from HIV-1 persistently infected humanized mice; assay type: cell-based; conditions: for number of live CD4 T cells (CD4 T cell depletion) / active caspase-3 / apoptosis of CD4 T cells: 10 days culture, Z-DEVD-FMK 10 μM; for number of live CD4 T cells (CD4 T cell depletion): Ac-YVAD-CMK 50 μM
Experimental: Mice were sacrificed at 10 wpi. […] At day 10, the cells were counted and used for analysis. (B) HIV-1 RNA levels in culture supernatant. (C-D) Representative dot plots (C) and summarized data (D) show percentages of CD4 T cells with active caspase-3. (E) Number of live CD4 T cells in each group. (F-I) Splenocytes from mock (n=2) or HIV-1 infected (n=4) humanized mice were cultured with IL-2 in vitro in the presence of DMSO or caspase-3 inhibitor Z-DEVD-FMK or caspase-1 inhibitor Ac-YVAD-CMK for 10 days. At day 10, the cells were counted and used for staining. (F-G) Representative dot plots (F) and summarized data (G) show percentages of active caspase-3^+ CD4 T cells. (H-I) Number of live CD4 T cells in each group. Data are one representative of 2 independent experiments with mean values±s.e.m.). *P<0.05, **P<0.01 by unpaired, two-tailed Student's t-test to compare differences between each two groups.
For surface staining, single cell suspensions prepared from peripheral blood, spleen, or mesenteric lymph nodes of humanized mice were stained with surface markers and analyzed on a CyAn ADP flow cytometer (Dako). For intracellular staining, cells were first stained with surface markers, and then fixed and permeabilized with cytofix/cytoperm buffer (BD Bioscience), followed by intracellular staining. PE-conjugated anti-human active caspase-3 (C92-605) was used to detect intracellular activation of caspase-3. Fluorescent labeled inhibitors of caspases-1 probe assay (FLICA 660 Caspase-1 Assay Kit, ImmunoChemistry Technologies) were performed to determine intracellular activation of caspases-1. Data were analyzed using Summit4.3 software (Dako).
Media were half-changed every 2-3 days. At day 10, the cells were counted and used for staining.

HIV-1 = conditions: long-term IFN-α during and after ART; cited from earlier work
[1] = α-IFNAR1 10 μg/ml, IFN-α 200 u/ml

| Compound | number of live CD4 T cells (CD4 T cell depletion) (CD4 T cells) | active caspase-3 / apoptosis of CD4 T cells (CD4 T cells; [1]) | patients with suppression of HIV-1 rebound (HIV-1) [%] | HIV-1 replication (HIV-1 RNA in culture supernatant) (CD4 T cells; 10 days culture with IL-2, α-IFNAR1 10 μg/ml, IFN-α 200 u/ml) |
| --- | --- | --- | --- | --- |
| CC(=O)N[C@@H](Cc1ccc(O)cc1)C(=O)N[C@H](C(=O)N[C@@H](C)C(=O)N[C@@H](CC(=O)O)C(=O)CCl)C(C)C [Ac-YVAD-CMK, reference compound] | did not prevent CD4 T cell depletion |  |  |  |
| COC(=O)CC[C@H](NC(=O)[C@H](CC(=O)OC)NC(=O)OCc1ccccc1)C(=O)N[C@H](C(=O)N[C@@H](CC(=O)OC)C(=O)CF)C(C)C [Z-DEVD-FMK, reference compound] | rescued CD4 T cell number | reduced HIV-1 induced CD4 T cell apoptosis |  |  |
| IFN-α | accelerated CD4 T cell depletion | further increased the level of active caspase-3 | ~40 | inhibited HIV-1 replication |
